Assay: logP determination by retention times (calibration with alkan-2-ones)
Details: * HPLC reversed-phase C18, 40° C., mobile phase 0.1% aqueous formic acid and acetonitrile, linear gradient 10% to 95% acetonitrile

| SMILES | logP |
| --- | --- |
| Cc1nc(N(C)C)sc1-c1ccnc(Nc2cccc(Cl)c2)n1 [Example 687, N-(3-chlorophenyl)-4-[2-(dimethylamine)-4-methyl-1,3-thiazol-5-yl]pyrimidine-2-amine] | 2.62* |
| Cc1nc(N(C)C)sc1-c1ccnc(Nc2ccccc2)n1 [Example 688, 4-[2-(dimethylamine)-4-methyl-1,3-thiazol-5-yl]-N-phenylpyrimidine-2-amine] | 1.98* |
| Cc1cc(Nc2nccc(-c3sc(N(C)C)nc3C(F)(F)F)n2)ccc1F [Example 692, 4-[2-(dimethylamine)-4-(trifluoromethyl)-1,3-thiazol-5-yl]-N-(4-fluoro-3-methylphenyl)pyrimidine-2-amine] | 4.43* |
| COC(=O)Nc1ccc(Nc2nccc(-c3sc(N(C)C)nc3C(F)(F)F)n2)cc1 [Example 694, methyl-[4-({4-[2-(dimethylamine)-4-(trifluoromethyl)-1,3-thiazol-5-yl]pyrimidin-2-yl}amino)phenyl]carbamate] | 3.04* |
| CN(C)c1nc(C(F)(F)F)c(-c2ccnc(Nc3cccc(Cl)c3)n2)s1 [Example 695, N-(3-chlorophenyl)-4-[2-(dimethylamine)-4-(trifluoromethyl)-1,3-thiazol-5-yl]pyrimidine-2-amine] | 4.51* |
| CN(C)c1nc(C(F)(F)F)c(-c2ccnc(Nc3ccc(O)cc3)n2)s1 [Example 697, 4-({4-[2-(dimethylamine)-4-(trifluoromethyl)-1,3-thiazol-5-yl]pyrimidin-2-yl}amino)phenol] | 2.64* |
| CC(=O)Nc1ccc(Nc2nccc(-c3sc(N(C)C)nc3C(F)(F)F)n2)cc1 [Example 699, N-[4-({4-[2-(dimethylamine)-4-(trifluoromethyl)-1,3-thiazol-5-yl]pyrimidin-2-yl}amino)phenyl]acetamide] | 2.58* |
| CN(C)c1nc(C(F)(F)F)c(-c2ccnc(Nc3ccc(N(C)C)c(Cl)c3)n2)s1 [Example 701, 2-chloro-N4-{4-[2-(dimethylamine)-4-(trifluoromethyl)-1,3-thiazol-5-yl]pyrimidin-2-yl}-N1,N1-dimethylbenzene-1,4-diamine] | 3.46* |
| CN(C)c1nc(C(F)(F)F)c(-c2ccnc(Nc3cccc(O)c3)n2)s1 [Example 702, 3-({4-[2-(dimethylamine)-4-(trifluoromethyl)-1,3-thiazol-5-yl]pyrimidin-2-yl}amino)phenol] | 2.84* |
| CN(C)c1nc(C(F)(F)F)c(-c2ccnc(Nc3ccc4c(c3)OCO4)n2)s1 [Example 704, N-1,3-benzodioxol-5-yl-4-[2-(dimethylamine)-4-(trifluoromethyl)-1,3-thiazol-5-yl]pyrimidine-2-amine] | 3.63* |
| COc1cc(Nc2nccc(-c3sc(N(C)C)nc3C(F)(F)F)n2)cc(OC)c1 [Example 707, N-(3,5-dimethoxyphenyl)-4-[2-(dimethylamine)-4-(trifluoromethyl)-1,3-thiazol-5-yl]pyrimidine-2-amine] | 3.85* |

Same assay, conditions: logP, * HPLC reversed-phase C18, 40° C., mobile phase 0.1% aqueous formic acid and acetonitrile, linear gradient 10% to 95% acetonitrile

| SMILES | chromatographic logP |
| --- | --- |
| COCCNc1nc(C)c(-c2ccnc(Nc3cccc(C(C)=O)c3)n2)s1 [Example 689, 1-{3-[(4-{2-[(2-methoxyethyl)amino]-4-methyl-1,3-thiazol-5-yl}pyrimidin-2-yl)amino]phenyl}ethanone] | 1.69 |
| COCCNc1nc(C)c(-c2ccnc(Nc3cccc(O)c3)n2)s1 [Example 690, 3-[(4-{2-[(2-methoxyethyl)amino]-4-methyl-1,3-thiazol-5-yl}pyrimidin-2-yl)amino]phenol] | 1.38 |
| COCCNc1nc(C)c(-c2ccnc(Nc3ccc(NS(C)(=O)=O)cc3)n2)s1 [Example 691, N-{4-[(4-{2-[(2-methoxyethyl)amino]-4-methyl-1,3-thiazol-5-yl}pyrimidin-2-yl)amino]phenyl}methanesulphonamide] | 1.39 |
| COC(=O)Nc1ccc(Nc2nccc(-c3sc(C)nc3C(F)(F)F)n2)cc1 [Example 693, methyl-[4-({4-[2-methyl-4-(trifluoromethyl)-1,3-thiazol-5-yl]pyrimidin-2-yl}amino)phenyl]carbamate] | 2.7 |
| Cc1nc(C(F)(F)F)c(-c2ccnc(Nc3ccc(O)cc3)n2)s1 [Example 696, 4-({4-[2-methyl-4-(trifluoromethyl)-1,3-thiazol-5-yl]pyrimidin-2-yl}amino)phenol] | 2.39 |
| CC(=O)Nc1ccc(Nc2nccc(-c3sc(C)nc3C(F)(F)F)n2)cc1 [Example 698, N-[4-({4-[2-methyl-4-(trifluoromethyl)-1,3-thiazol-5-yl]pyrimidin-2-yl}amino)phenyl]acetamide] | 2.26 |
| Cc1nc(C(F)(F)F)c(-c2ccnc(Nc3ccc(N(C)C)c(Cl)c3)n2)s1 [Example 700, 2-chloro-N1,N1-dimethyl-N4-{4-[2-methyl-4-(trifluoromethyl)-1,3-thiazol-5-yl]pyrimidin-2-yl}benzene-1,4-diamine] | 2.88 |
| Cc1nc(C(F)(F)F)c(-c2ccnc(Nc3ccc4c(c3)OCO4)n2)s1 [Example 703, N-1,3-benzodioxol-5-yl-4-[2-methyl-4-(trifluoromethyl)-1,3-thiazol-5-yl]pyrimidine-2-amine] | 3.21 |
| Cc1nc(C(F)(F)F)c(-c2ccnc(Nc3ccc(F)c(F)c3)n2)s1 [Example 705, N-(3,4-difluorophenyl)-4-[2-methyl-4-(trifluoromethyl)-1,3-thiazol-5-yl]pyrimidine-2-amine] | 3.76 |
| COc1cc(Nc2nccc(-c3sc(C)nc3C(F)(F)F)n2)cc(OC)c1 [Example 706, N-(3,5-dimethoxyphenyl)-4-[2-methyl-4-(trifluoromethyl)-1,3-thiazol-5-yl]pyrimidine-2-amine] | 3.41 |
| COc1cc(Nc2nccc(-c3sc(C)nc3C(F)F)n2)cc(OC)c1OC [Example 708, 4-[4-(difluoromethyl)-2-methyl-1,3-thiazol-5-yl]-N-(3,4,5-trimethoxyphenyl)pyrimidine-2-amine] | 2.61 |
| CC(=O)c1cccc(Nc2nccc(-c3sc(C)nc3C(F)F)n2)c1 [Example 709, 1-[3-({4-[4-(difluoromethyl)-2-methyl-1,3-thiazol-5-yl]pyrimidin-2-yl}amino)phenyl]ethanone] | 2.64 |
| Cc1nc(C(F)F)c(-c2ccnc(Nc3ccccc3)n2)s1 [Example 710, 4-[4-(difluoromethyl)-2-methyl-1,3-thiazol-5-yl]-N-phenylpyrimidine-2-amine] | 2.97 |
| CCc1nc(C)c(-c2ccnc(Nc3ccc(C(=O)NCCOC)cc3)n2)s1 [Example 711, 4-{[4-(2-ethyl-4-methyl-1,3-thiazol-5-yl)pyrimidin-2-yl]amino}-N-(2-methoxyethyl)benzamide] | 2.09 |
| COC(=O)NCc1cccc(Nc2nccc(-c3sc(SC)nc3C)n2)c1 [Example 712, methyl-[3-({4-[4-methyl-2-(methylthio)-1,3-thiazol-5-yl]pyrimidin-2-yl}amino)benzyl]carbamate] | 2.16 |
| COc1cc(Nc2nccc(-c3sc(-c4cccnc4)nc3C)n2)cc(OC)c1OC [Example 713, 4-(4-methyl-2-pyridin-3-yl-1,3-thiazol-5-yl)-N-(3,4,5-trimethoxyphenyl)pyrimidine-2-amine] | 2.56 |
| CCc1nc(C)c(-c2ccnc(Nc3cccnc3)n2)s1 [Example 714, 4-(2-ethyl-4-methyl-1,3-thiazol-5-yl)-N-pyridin-3-ylpyrimidine-2-amine] | 1.35 |
| Cc1nc(-c2cccnc2)sc1-c1ccnc(Nc2ccccc2)n1 [Example 715, 4-(4-methyl-2-pyridin-3-yl-1,3-thiazol-5-yl)-N-phenylpyrimidine-2-amine] | 3.04 |
| Cc1nc(C)c(-c2ccnc(Nc3cccnc3)n2)s1 [Example 716, 4-(2,4-dimethyl-1,3-thiazol-5-yl)-N-pyridin-3-ylpyrimidine-2-amine] | 0.98 |
| CCc1nc(C)c(-c2ccnc(Nc3ccc(C(C)=O)cc3)n2)s1 [Example 717, 1-(4-{[4-(2-ethyl-4-methyl-1,3-thiazol-5-yl)pyrimidin-2-yl]amino}phenyl)ethanone] | 2.6 |
| CCc1nc(C)c(-c2ccnc(Nc3ccc(C)c(C)c3)n2)s1 [Example 718, N-(3,4-dimethylphenyl)-4-(2-ethyl-4-methyl-1,3-thiazol-5-yl)pyrimidine-2-amine] | 3.71 |
| COc1cc(Nc2nccc(-c3sc(NCC4CCCO4)nc3C)n2)cc(OC)c1 (centres unmarked) [Example 719, N-(3,5-dimethoxyphenyl)-4-{4-methyl-2-[(tetrahydrofuran-2-ylmethyl)amino]-1,3-thiazol-5-yl}pyrimidine-2-amine] | 2.02 |
| Cc1nc(NCC2CCCO2)sc1-c1ccnc(Nc2ccc(N3CCCC3=O)cc2)n1 (centres unmarked) [Example 720, 1-{4-[(4-{4-methyl-2-[(tetrahydrofuran-2-ylmethyl)amino]-1,3-thiazol-5-yl}pyrimidin-2-yl)amino]phenyl}pyrrolidin-2-one] | 1.6 |
| CCc1nc(C)c(-c2ccnc(Nc3ccc(OCC(C)(C)C)nc3)n2)s1 [Example 721, N-[6-(2,2-dimethylpropoxy)pyridin-3-yl]-4-(2-ethyl-4-methyl-1,3-thiazol-5-yl)pyrimidine-2-amine] | 4.23 |
| COCCCNc1nc(C)c(-c2ccnc(Nc3ccccc3)n2)s1 [Example 725, 4-{2-[(3-methoxypropyl)amino]-4-methyl-1,3-thiazol-5-yl}-N-phenylpyrimidine-2-amine] | 1.81 |
| COCCCNc1nc(C)c(-c2ccnc(Nc3cccc(Cl)c3)n2)s1 [Example 726, N-(3-chlorophenyl)-4-{2-[(3-methoxypropyl)amino]-4-methyl-1,3-thiazol-5-yl}pyrimidine-2-amine] | 2.28 |
| COCC(C)Nc1nc(C)c(-c2ccnc(Nc3ccc(N4CCCC4=O)cc3)n2)s1 (centres unmarked) [Example 728, 1-{4-[(4-{2-[(2-methoxy-1-methylethyl)amino]-4-methyl-1,3-thiazol-5-yl}pyrimidin-2-yl)amino]phenyl}pyrrolidin-2-one] | 1.64 |
